From BindingDB's records for patent US11834453 (Array Biopharma, 2023) come the findings set out here.

Sequence of Receptor tyrosine-protein kinase erbB-2 (P04626 whole entry): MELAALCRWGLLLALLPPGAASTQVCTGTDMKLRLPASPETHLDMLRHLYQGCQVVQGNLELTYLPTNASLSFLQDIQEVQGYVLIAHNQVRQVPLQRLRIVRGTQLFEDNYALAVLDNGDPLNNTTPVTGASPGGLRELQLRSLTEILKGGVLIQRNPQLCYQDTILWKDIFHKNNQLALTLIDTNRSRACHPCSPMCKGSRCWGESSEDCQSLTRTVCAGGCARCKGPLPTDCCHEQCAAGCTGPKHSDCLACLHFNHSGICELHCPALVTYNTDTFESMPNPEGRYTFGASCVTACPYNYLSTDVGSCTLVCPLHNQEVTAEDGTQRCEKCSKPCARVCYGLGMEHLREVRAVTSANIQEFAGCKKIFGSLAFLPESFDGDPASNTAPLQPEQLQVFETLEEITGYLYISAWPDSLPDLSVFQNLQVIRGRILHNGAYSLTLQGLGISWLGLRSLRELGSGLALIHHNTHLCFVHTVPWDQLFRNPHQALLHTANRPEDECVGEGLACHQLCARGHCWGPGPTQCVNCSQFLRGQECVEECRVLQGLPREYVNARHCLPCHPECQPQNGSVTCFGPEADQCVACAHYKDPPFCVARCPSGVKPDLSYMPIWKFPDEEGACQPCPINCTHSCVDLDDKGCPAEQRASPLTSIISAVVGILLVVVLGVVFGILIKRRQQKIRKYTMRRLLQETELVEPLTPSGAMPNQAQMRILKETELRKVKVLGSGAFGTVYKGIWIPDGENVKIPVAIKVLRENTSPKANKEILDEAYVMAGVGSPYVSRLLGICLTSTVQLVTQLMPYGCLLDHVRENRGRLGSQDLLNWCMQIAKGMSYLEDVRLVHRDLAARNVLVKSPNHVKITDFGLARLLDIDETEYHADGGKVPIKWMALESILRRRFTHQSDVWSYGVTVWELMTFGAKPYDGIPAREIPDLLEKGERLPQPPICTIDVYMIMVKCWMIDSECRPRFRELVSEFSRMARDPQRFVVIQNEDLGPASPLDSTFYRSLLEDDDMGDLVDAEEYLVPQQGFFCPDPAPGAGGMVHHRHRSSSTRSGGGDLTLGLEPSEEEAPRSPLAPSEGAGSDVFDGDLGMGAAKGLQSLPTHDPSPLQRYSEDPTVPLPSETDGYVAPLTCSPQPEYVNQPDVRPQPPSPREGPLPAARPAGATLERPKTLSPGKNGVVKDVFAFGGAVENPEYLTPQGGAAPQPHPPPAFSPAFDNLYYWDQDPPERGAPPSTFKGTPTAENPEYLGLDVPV

This assay addresses Receptor tyrosine-protein kinase erbB-2 (Homo sapiens, UniProt P04626). The experiment in a line: ErbB Enzyme Assay. The protocol:
The kinases were incubated with 250 nM TK-substrate biotin (CisBio, part of cat #62TK0PEC) at 1 mM ATP along with test compounds in a buffer consisting of 25 mM HEPES, pH 7.4, 10 mM MgCl2, 0.01% Triton X-100, and 2% DMSO in a volume of 8 uL. Compounds were prepared as a three-fold serial dilution in DMSO and added to the assay to give the appropriate final concentration. After 30-minute incubation at 22 C., the reaction was quenched by adding 8 uL of quench solution containing 62.5 nM Sa-XL665 and 0.25x TK-Ab-Cryptate in HTRF detection buffer (all from CisBio, part of cat #62TK0PEC). After a 1-hour incubation at 22 C., the extent of reaction was determined using a PerkinElmer EnVision multimode plate reader via HTRF dual wavelength detection, and the percent of control (POC) was calculated using a ratiometric emission factor.
A word on the IC50: it is the midpoint of a concentration-inhibition curve. Low values mean higher potency, high ones lower potency. For `CCOc1ncc2ncnc(Nc3ccc(Oc4ccc5c(c4)ncn5C)c(C)c3)c2n1` [US11834453, Example 13], the IC50 came out at 121 nM. The result for `Cc1cc(Nc2ncnc3cnc(N4CC5C6CCC(O6)C5C4)nc23)ccc1Oc1ccc2c(c1)ncn2C` (stereo not drawn) [US11834453, Example 16] reads 60.6 nM. The value for `Cc1cc(Nc2ncnc3cnc(N4C[C@H]5CC[C@@H]4CO5)nc23)ccc1Oc1ccn2ncnc2c1` [US11834453, Example 127] was 114 nM.

In the case of `Cc1cc(Nc2ncnc3cnc(N4CCCO4)nc23)ccc1Oc1ccc2c(c1)ncn2C` [US11834453, Example 178], the IC50 amounted to 67.1 nM. The compound `Cc1cc(Nc2ncnc3cnc(N(C)C[C@@H](C)O)nc23)ccc1Oc1ccc2c(c1)ncn2C` [US11834453, Example 189] returned an IC50 of 32.2 nM. `Cc1cc(Nc2ncnc3cnc(N4CC(C)(O)CO4)nc23)ccc1Oc1ccc2c(c1)ncn2C` (stereo not drawn) [US11834453, Example 191] displayed an IC50 of 171 nM. The value for `Cc1cc(Nc2ncnc3cnc(N(C)C[C@H](C)O)nc23)ccc1Oc1ccc2c(c1)ncn2C` [US11834453, Example 195] was 37.5 nM. In the case of `Cc1cc(Nc2ncnc3cnc(N(C)CCO)nc23)ccc1Oc1ccc2c(c1)ncn2C` [US11834453, Example 208], half-maximal inhibition (IC50) required 25.6 nM.
